Measurements published in ChEMBL document CHEMBL3792289, “Design, synthesis and biological evaluation of bisabolangelone oxime derivatives as potassium-competitive acid blockers (P-CABs)” (Bioorg Med Chem Lett, 2016).

Tests used:
[1] = Inhibition of pig gastric H+/K+-ATPase in stomach ion leaky membrane vesicle assessed as reduction in monophosphate production after 30 mins by microplate reader analysis in presence of valinomycin; format: cell membranes, Sus scrofa
[2] = Inhibition of gastric H+/K+-ATPase in Kunming mouse stomach parietal cells; format: tissue-based

Row | SMILES | pIC50 [1] | further results
1 | CC(C)CCC1O[C@H]2C[C@@H](C)C/C(=N\O)[C@H]2[C@@]1(C)O (some centres undefined) | 5.3 | –
2 | Cc1nc(Nc2ccc(F)cc2)nc(N2CCc3ccccc3C2C)c1C (centres undefined) [REVAPRAZAN] | – | IC50 [1]: 0.95 µM
3 | CC(C)C/C=C1\O[C@H]2C[C@@H](C)C/C(=N\OCc3ccccc3)[C@H]2[C@@]1(C)O | 6.25 | –
4 | CC(C)C/C=C1\O[C@H]2C[C@@H](C)C/C(=N\OC(=O)Nc3ccccc3)[C@H]2[C@@]1(C)O | 6 | –
5 | CCOC(=O)CO/N=C1\C[C@H](C)C[C@@H]2O/C(=C\CC(C)C)[C@](C)(O)[C@H]12 | 6.07 | –
6 | CC(C)C/C=C1\O[C@H]2C[C@@H](C)CC(=O)[C@H]2[C@@]1(C)O | – | IC50 [2]: 23.2 µM

Further lines, with some results ahead:

Row | pIC50 [1] | SMILES | further results
7 | 5.94 | CCCCO/N=C1\C[C@H](C)C[C@@H]2O/C(=C\CC(C)C)[C@](C)(O)[C@H]12 | –
8 | 6.36 | C#CCO/N=C1\C[C@H](C)C[C@@H]2O/C(=C\CC(C)C)[C@](C)(O)[C@H]12 | –
9 | 5.54 | CC(C)C/C=C1\O[C@H]2C[C@@H](C)C/C(=N\O)[C@H]2[C@@]1(C)O | –
